Laboratory results reported in patent US20090023755A1, “USE OF ISTRADEFYLLINE FOR TREATING BEHAVIORAL DISORDERS” (KYOWA HAKKO KOGYO CO., LTD., priority 2002, published 2009).

Columns and labels:
[1] = tested on: 6-hydroxydopamine-treated neonatal rats; experiment: Locomotor activity in 6-hydroxydopamine-treated neonatal rats; format: in vivo, rat
Procedure: Methods: Female neonatal SD rats were used for the experiments. 100 μg 6-Hydroxydopamine (6-HODA) was dissolved in a 0.1% solution of ascorbic acid in saline, and the obtained solution or 0.1% ascorbic acid in saline (control) was injected first at 3 days of age into the left lateral ventricle of the rat and secondly at 6 days of age into the right lateral ventricle of the rat. At 30-37 days, locomotor activity was measured by placing the rat in a transparent acrylic box (50×50×50 cm) 60 minutes after the drug administration using digital counters with infrared sensors (Scanet MV-10MT; Toyo Sangyo Co. Ltd., Toyama, Japan).
Compound (I) was suspended in a 0.3% aqueous Tween 80 solution, and administered orally to 6-HODA treated rats.

dd-strain male mice = experiment: Acute toxicity test; format: in vivo; conditions: oral administration, mortality seven days after administration
From the text: Compound (I) was orally or intraperitoneally administered to groups of dd-strain male mice weighing 20±1 g, each group consisting of three mice.

young rats = experiment: Acquisition of a delayed alternation task in young rats; format: in vivo, rat; conditions: for Choice reaction times per session (mean ± s.e.m.) / Simple reaction times per session (mean ± s.e.m.): 0.3 mg/kg p.o. -60 min
Procedure: The following experiment was carried out according to a method described in Drug Dev. Res., 35, p. 83-95 (1996) with a slight modification. Methods: Male Rj: Wistar (Han) rats were used for the experiments. Before being tested, the rats were given the standard diet each day. Several 45 mg food pellets (these were also used in the delayed alternation sessions described below) were also given them to habituate them to this novel food.
The aim of this phase is to train rats, on the presentation of a single centralized retractable lever, to press on it to receive a food pellet.
The rats were subjected to 10 lever-pressing acquisition sessions in the experimental chambers according to a fixed ratio (FR1) schedule of reinforcement. Reinforcement consists of food pellets (45 mg) delivered after each lever-press. Each daily session lasts 15 minutes. All rats received an intraperitoneal administration of physiological saline 30 minutes before each session. During the first 7 sessions, the Skinner boxes were equipped with only one fixed lever situated centrally above the food receptacle, to avoid spatial preference for the right or the left side of the experimental panel. After the 7th lever-pressing session, the boxes were equipped with two retractable levers located on either side of the food receptacle. The rats were then subjected to 3 consecutive sessions in which the left or the right lever was pseudo-randomly presented every 5 seconds. At the end of this phase 80 to 100% of the rats acquired the lever press-response. […] If some rats were close to establishing steady lever-pressing behavior they were given extra training with the aim of attaining at least 10 rats per group. Rats were assigned to treatment groups matched on the basis of their performance.
Subsequent to lever-press acquisition sessions, all rats were subjected to delayed alternation sessions. The test was conducted for 5 days. During this phase, the boxes were equipped with two retractable levers on each side of the food distributor. Each session consisted of 35 successive trials every 10 seconds. In each trial, the rat was first presented with one lever (left or right). When the rat pressed on the lever, the rat was given a food pellet, the lever was retracted and 5 seconds later two levers were presented. The rat had to learn to press on the lever opposite to that previously presented to gain a food pellet (non-matching to sample).
Compound (I) was suspended in 0.5% methylcellulose in distilled water and administered orally 60 minutes before each session.
The effect of Compound (I) was evaluated by measuring simple reaction time, which means the reaction time to each one-lever presentation, and choice reaction time, which means the reaction time to each two-lever presentation.

[2] = tested on: 6-hydroxydopamine-treated young rats; experiment: Tic/Tourette like symptoms in 6-hydroxydopamine-treated young rats; format: in vivo, rat
Procedure: Methods: 6-HODA was injected into the left medial forebrain bundle of a rat to induce a unilateral lesion of dopaminergic neurons, followed by repeated oral administration of L-DOPA at 20 mg/kg twice daily for 2 weeks to make a rat model of tic-like symptoms.
Tic-like, abnormal involuntary movements were observed after day 3 during repetitive treatment with L-DOPA. Two subtypes of involuntary movements were classified as axial (lateral torsion of the head, neck and trunk towards the side contralateral to the lesion, including swing of the head) and forelimb (abnormal movements contralateral to the lesion, including kicking movements of the forelimb).
The severity of these movements was assigned a score from 0 to 4 to each movement as follows.
(score 0) no deviation of head
(score 1) lateral deviation of head: […]
(score 2) lateral deviation of head: more than 30°, and 60° or less
(score 3) torsion of head and upper trunk: more than 60°, and 90° or less
(score 4) torsion of head and trunk: more than 90°
(score 0) no movements of both distal and proximal forelimbs
(score 1) tiny oscillatory movements of the distal forelimb
(score 2) movements of low amplitude but causing visible translocation of both distal and proximal forelimbs
(score 3) translocation of the whole limb with visible contraction of shoulder muscles
(score 4) vigorous limb and shoulder movements of maximal amplitude
Compound (I) was repeatedly administered orally to 6-HODA treated rats at 1 mg/kg for 23 days, and Tic-like, abnormal involuntary movements were observed every 10 minutes for 3 hours, each time for one minute.
Peak score was obtained by adding the peak score for forelimb to that for axial (Data are expressed as mean±standard deviation in the following Table 1). Peak time means the time after the first administration when peak score was score observed.

[3] = 0.3 mg/kg orally, compared with vehicle control rats
[4] = 1 mg/kg orally, compared with before administration

For CCn1c(=O)c2c(nc(/C=C/c3ccc(OC)c(OC)c3)n2C)n(CC)c1=O [Compound (I), (E)-8-(3,4-dimethoxystyryl)-1,3-diethyl-7-methylxanthine], the locomotor activity ([1]; 6-HODA treated rats, 1.25 mg/kg orally, measured 60 minutes after administration) was “decreased locomotor activities”, the locomotor activity ([1]; 6-HODA treated rats, 5 mg/kg orally, measured 60 minutes after administration) was “decreased locomotor activities” and the locomotor activity ([1]; control rats treated only with 0.1% ascorbic acid in saline (vehicle), oral) was “increased locomotor activities”. The “minimum lethal dose (MLD)” value (dd-strain male mice) was “greater than 1000 mg/kg”, the choice reaction times (young rats; [3]) was “significantly decreased” and the simple reaction times (young rats; [3]) was “significantly decreased”. For the same molecule, the “Choice reaction times per session (mean ± s.e.m.)” value (“Choice reaction times per session” for short) (young rats; session S1) was 1.71 ± 0.13 s, the “Simple reaction times per session (mean ± s.e.m.)” value (“Simple reaction times per session” below) (young rats; session S1) was 3.16 ± 0.24 s and the “Choice reaction times per session” value (young rats; session S2) was 1.52 ± 0.10 s. The “Simple reaction times per session” value (young rats; session S2) was 2.49 ± 0.28 s, the “Choice reaction times per session” value (young rats; session S3) was 1.22 ± 0.12 s and the “Simple reaction times per session” value (young rats; session S3) was 1.63 ± 0.20 s. The “Choice reaction times per session” value (young rats; session S4) was 1.13 ± 0.18 s, the “Simple reaction times per session” value (young rats; session S4) was 1.73 ± 0.21 s and the “Choice reaction times per session” value (young rats; session S5) was 0.92 ± 0.09 s. The “Simple reaction times per session” value (young rats; session S5) was 1.33 ± 0.11 s, the peak score [2, 4] was “decreased” and the peak time [2, 4] was “decreased”. It also gave a peak time ([2]; L-DOPA + compound 1 mg/kg p.o., Day 1) of 30 min, a peak score ([2]; L-DOPA + compound 1 mg/kg p.o., Day 1, n = 6, mean ± standard deviation, forelimb + axial) of 5.6 ± 1.4 and a peak time ([2]; L-DOPA + compound 1 mg/kg p.o., Day 9) of 40 min. It also gave a peak score ([2]; L-DOPA + compound 1 mg/kg p.o., Day 9, n = 6, mean ± standard deviation, forelimb + axial) of 4.4 ± 1.6, a peak time ([2]; L-DOPA + compound 1 mg/kg p.o., Day 23) of 20 min and a peak score ([2]; L-DOPA + compound 1 mg/kg p.o., Day 23, n = 6, mean ± standard deviation, forelimb + axial) of 1.6 ± 0.6.
